The results in this text go back to ChEMBL document CHEMBL3758129, “Design, synthesis and anti-HIV evaluation of novel diarylpyridine derivatives targeting the entrance channel of NNRTI binding pocket” (Eur J Med Chem, 2016).

The structures appear in SMILES notation. Where only a bound is given, the exact number is not on record here.

The nature of data set [1]: Selectivity index, ratio of CC50 for human MT4 cells to EC50 for wild type HIV2 ROD infected in human MT4 cells. The following applies: read-out: Ratio CC50/EC50. The format is toxicity, cell-based.
Data set [2] concerns Human immunodeficiency virus 1. The data set is described as follows: Antiviral activity against wild type HIV1 3B infected in human MT4 cells assessed as reduction of virus-induced cytopathic effect after 5 days by MTT assay. The format is functional, organism-based. The following applies: Human immunodeficiency virus 1, 3B, MT4, 120 h.
The test system of data set [3] is Human immunodeficiency virus 2. The data set is described as follows: Antiviral activity against wild type HIV2 ROD infected in human MT4 cells assessed as reduction of virus-induced cytopathic effect after 5 days by MTT assay. The class given is functional, organism-based. The following applies: Human immunodeficiency virus 2, ISOLATE ROD, MT4, 120 h.
Data set [4] can be described thus: Selectivity index, ratio of CC50 for human MT4 cells to EC50 for wild type HIV1 3B infected in human MT4 cells. The format is toxicity, cell-based. The following applies: read-out: Ratio CC50/EC50.
Data set [5] is described as follows: Cytotoxicity against human MT4 cells assessed as reduction in viability of mock infected cells after 5 days MTT assay. The class given is cell-based.

`Cc1cc(C#N)cc(C)c1Oc1cc(NCC2CC2)nc(Nc2ccc(C#N)cc2)c1`: the selectivity ratio in data set [1] is less than 1; in data set [4] it was greater than 201. The EC50 was 1.52 µM in data set [2] and greater than 125 µM in data set [3]. Further, the half-maximal cytotoxic concentration (CC50) at 120 h in data set [5] is greater than 305 µM.

`Cc1cc(C#N)cc(C)c1Oc1cc(Nc2ccc(C#N)cc2)nc(NC2CC2)c1`: the selectivity ratio was less than 1 in data set [1] and 47 in data set [4]. Further, the concentration giving a half-maximal response (EC50) in data set [2] was 0.22 µM; in data set [3], greater than 4.06 µM. The CC50 at 120 h in data set [5] amounted to 10.3 µM.

As for `Cc1cc(C)c(Oc2cc(NCCN3CCNCC3)nc(Nc3ccc(C#N)cc3)c2)c(C)c1`, the selectivity ratio in data set [1] was less than 1; in data set [4] it was 5. The 50% effective concentration (EC50) in data set [2] is 0.71 µM; in data set [3] it was greater than 1.65 µM. For the same compound, the 50% cytotoxic concentration (CC50) at 120 h in data set [5] stood at 3.61 µM.

For `COCCNc1cc(Oc2c(C)cc(C#N)cc2C)cc(Nc2ccc(C#N)cc2)n1`, the selectivity ratio in data set [1] was less than 1; in data set [4], no less than 394. Also, the results for the half-maximal effective concentration (EC50) in data set [2] and in data set [3] were 0.25 µM and greater than 40.7 µM, respectively. In addition, in data set [5], the CC50 at 120 h was no less than 98.5 µM.

Turning to `COC(CNc1cc(Oc2c(C)cc(C)cc2C)cc(Nc2ccc(C#N)cc2)n1)OC`, the selectivity ratio was less than 1 in data set [1] and 21 in data set [4]. For the same compound, the EC50 in data set [2] was 1.63 µM; in data set [3], greater than 14.5 µM. Moreover, the CC50 at 120 h in data set [5] is 33.5 µM.

For `Cc1cc(C)c(Oc2cc(NCCN(C)C)nc(Nc3ccc(C#N)cc3)c2)c(C)c1`, the selectivity ratio in data set [1] is less than 1; in data set [4] it was 109. Moreover, the EC50 is 0.043 µM in data set [2] and greater than 1.94 µM in data set [3]. The CC50 at 120 h in data set [5] amounted to 4.67 µM.

For `Cc1cc(C)c(Oc2cc(NCCC#N)nc(Nc3ccc(C#N)cc3)c2)c(C)c1`, the selectivity ratio in data set [1] was less than 1; in data set [4], 22. Further, the 50% effective concentration (EC50) in data set [2] was 0.24 µM; in data set [3], greater than 2.1 µM. In data set [5], the cytotoxic concentration (CC50) at 120 h came to 5.3 µM.

For the compound `Cc1cc(C)c(Oc2cc(NCC3CC3)nc(Nc3ccc(C#N)cc3)c2)c(C)c1`, the selectivity ratio in data set [1] was less than 1; in data set [4] it was 17. Further, the figures for the EC50 in data set [2] and in data set [3] were 1.99 µM and greater than 13.1 µM, respectively. Also, the CC50 at 120 h in data set [5] was found to be 32.9 µM.

Consider `Cc1cc(C)c(Oc2cc(Nc3ccc(C#N)cc3)nc(NC3CC3)c2)c(C)c1`, for which the selectivity ratio was less than 1 in data set [1] and 190 in data set [4]. Also, the values for the EC50 in data set [2] and in data set [3] were 0.035 µM and greater than 2.58 µM, respectively. The CC50 at 120 h in data set [5] is 6.71 µM.

As for `Cc1cc(C)c(Oc2cc(NCC3CCCO3)nc(Nc3ccc(C#N)cc3)c2)c(C)c1` (stereo not given), the selectivity ratio in data set [1] was less than 1; in data set [4], greater than 163. Besides, the values for the EC50 in data set [2] and in data set [3] were 1.79 µM and greater than 125 µM, respectively. Also, the half-maximal cytotoxic concentration (CC50) at 120 h in data set [5] is greater than 292 µM.

Take `COCCNc1cc(Oc2c(C)cc(C)cc2C)cc(Nc2ccc(C#N)cc2)n1`: the selectivity ratio in data set [1] is less than 1; in data set [4], 65. Moreover, the values for the EC50 in data set [2] and in data set [3] were 0.87 µM and greater than 22.9 µM, respectively. For the same compound, the 50% cytotoxic concentration (CC50) at 120 h in data set [5] stood at 56.6 µM.

With `Cc1cc(C#N)cc(C)c1Oc1cc(NCC2CCCO2)nc(Nc2ccc(C#N)cc2)c1` (stereo not given), the selectivity ratio was less than 1 in data set [1] and greater than 216 in data set [4]. Further, the half-maximal effective concentration (EC50) in data set [2] was 1.32 µM; in data set [3] it was greater than 125 µM. Further, in data set [5], the CC50 at 120 h is greater than 285 µM.

For the compound `C=CCNc1cc(Oc2c(C)cc(C#N)cc2C)cc(Nc2ccc(C#N)cc2)n1`, the results for the selectivity ratio in data set [1] and in data set [4] were less than 1 and 55, respectively. Moreover, the concentration giving a half-maximal response (EC50) in data set [2] is 0.4 µM; in data set [3] it was greater than 8.77 µM. In addition, in data set [5], the CC50 at 120 h amounted to 22.2 µM.

For `C=CCNc1cc(Oc2c(C)cc(C)cc2C)cc(Nc2ccc(C#N)cc2)n1`, the figures for the selectivity ratio in data set [1] and in data set [4] were less than 1 and 35, respectively. The EC50 was 0.7 µM in data set [2] and greater than 9.33 µM in data set [3]. Also, the half-maximal cytotoxic concentration (CC50) at 120 h in data set [5] amounted to 24.3 µM.
